{"source": "patent US20050065114A1", "about": "“Therapeutical treatment with oligo-beta- (1,3) -glucans, drugs used in said treatment” (priority 2003, published 2005)", "format_in_all_cases": "in vivo, Balb/c mice", "key": {"peritoneal macrophages": {"system": "peritoneal macrophages", "assay": "Phagocytosis of HEMA particles by cells from peritoneal cavity after intraperitoneal injection", "conditions": "for % of phagocytosing macrophages: peritoneal cells 24 hrs after i.p. injection", "procedure": "A group of Balb/c mice (Jackson laboratory, Bar Harbor, Me., USA) has been injected intraperitoneally with either PBS (control), Laminaritetraose or Laminaripentaose. 24 hrs later, mice were sacrificed, peritoneal cells were collected into Hanks medium (Sigma).\nAfter counting the cells in hemocytometer, the peritoneal cells were diluted to lxlO7 cells in RPMI 1640 medium (Sigma) with 5% fetal calf serum (Hyclone, Logan, Utah, USA).\n2×10^6 cells in 0.2 ml of RPMI 1640 medium supplemented with 5% fetal calf serum were mixed with the same volume of HEMA particles (5×10^8/ml).\nThe suspension was incubated for 60 minutes at 37° C. with occasional agitation. Incubation was terminated by centrifugation (150 g for 5 minutes) and the pellet was resuspended.\nMacrophages with ingested particles were scored under the optical microscope in smears after Accustain (modified Wright stain, Sigma) staining.\nCells with six or more engulfed particles were considered to be positive."}, "[1]": {"system": "peripheral blood cells (monocytes, lymphocytes, granulocytes)", "assay": "Differential count in blood", "conditions": "for % of granulocytes / % of lymphocytes / % of monocytes: peripheral blood 24 hrs after i.p. injection", "procedure": "Using the same experimental groups as described above in Example 3, two extra microscopic slides from each experimental sample were prepared. After Accustain (modified Wright stain, Sigma) staining, the slides were evaluated using the optical microscope for presence of individual types of cells, i.e. monocytes, lymphocytes and granulocytes."}, "TNF-alpha": {"system": "TNF-alpha", "assay": "Cytokine level in peripheral blood: TNF-alpha in serum by OptEIA Mouse TNF-alpha ELISA", "conditions": "for TNF-alpha level (Table 6, same experiments as Table 5): 250 μg/mouse, unit not given in Table 6 (Table 5: pg/ml)", "procedure": "Balb/c mice were intraperitoneally injected with 50 μg of Laminaritetraose, Laminaripentaose, Laminarin or Lentinan (purchased from NIH, Bethesda, Md., USA) in PBS.\nAfter various time intervals (30, 60 and 90 minutes, respectively), after the injection of Laminaritetraose, Laminaripentaose, Laminarin, Lentinan only, the mice were killed and blood was collected in Eppendorf tubes.\nSubsequently, the serum of the collected blood was separated, collected and stored at −80° C. for no more than 1 week.\nThe level of TNF-alpha in the serum samples was evaluated using a commercial kit marketed as OptEIA Mouse TNF-alpha (Mono/Mono) Set by the Company Pharmingen, San Diego, Calif., USA); the manufacturer's instructions were followed.\nIn connection with the experiments carried out by Applicants, Balb/c mice were intraperitoneally injected with various doses (50, 100, and 250 μg) of Soluble laminarin and Lentinan (from NIH, Bethesda, Md., USA) in PBS.\nControl mice were treated with PBS only. […]\nSubsequently, the serum was prepared, collected and stored at −80° C. for no more than 1 week.\nThe level of TNF-alpha in serum samples was evaluated using a commercial kit marketed as OptEIA Mouse TNF-alpha (Mono/Mono) Set by the Company Pharmingen, San Diego, Calif., USA); the manufacturer's instructions were followed.\nIn that respect, The wells of 96-well plates were coated with 0.1 ml/well of capture antibody (provided in the above kit) diluted in coating buffer (also provided in the above kit); the expression “capture antibody” designates first antibody used for coating of wells; this antibody captures the tested cytokines from the solution; in this assay it was anti-mouse-TNF-alpha monoclonal antibody.\nThe plates were sealed and incubated overnight at 4° C.\nIndividual wells were emptied by aspiration and washed 3 times with over 300 el/well of wash buffer (also provided in the kit).\nReaction was blocked with 200 el/well of assay dilutant diluent (also provided in the kit) and by incubation for 60 minutes at room temperature.\nAgain, individual wells were emptied by aspiration and washed 3 times with over 300 el/well of the same wash buffer.\nStandards (also provided in the kit) and samples of serum were diluted in assay diluent (also provided in the kit) and pipetted (100 μl/well) in appropriate wells; as far as the dissolution rate is concerned standards (part of the kit) were diluted according to the instructions into following concentrations: 1000 pg/ml, 500 pg/ml, 250, 125, 62.5, 31.3, and 15.6 pg/ml.\nThe plates were sealed and incubated for 60 minutes at room temperature. Individual wells were aspirated and washed 3 times with over 300 μl/well of the same wash buffer. A quantity of 100 μl/well of a working detector (antibody-avidin-HRP conjugate also provided in the kit) was added into each well.\nThe plates were sealed with plastic foils and incubated for 60 minutes at room temperature. Individual wells were emptied by aspiration and washed 3 times with over 300 μl/well of same wash buffer.\nA quantity of 100 μl/well of substrate solution (also provided in the kit) was added to each well and the plates were incubated for 30 minutes in the dark at room temperature; “substrate solution” is formed by mixing a substrate reagent A containing hydrogen peroxide and Substrate reagent B containing 3,3′,5,5′-tetramethylbenzidine in organic solvent; when mixed together, the reagent reacts with peroxidase-labeled conjugates to develop a blue color.\nA quantity of 50 μl/well of stop solution provided in the kit and adapted to stop the reaction was added to each well and the optical density was determined using a STL ELISA reader (marketed by Tecan U.S., Research Triangle Park, N.C.) at 450 nm with a correction at 570 nm.\nThe concentration of TNF-alpha, in pg/ml, in the blood of the mice treated as hereabove disclosed has been determined at the following moments: 30, 60 and 90 minutes after the injection of Laminaritetraose, Laminaripentaose, Lentinan and control. […]"}, "[2]": {"system": "peritoneal cells (macrophages, lymphocytes, mast cells)", "assay": "Differential count in peritoneal cells", "conditions": "for % of lymphocytes / % of macrophages / % of mast cells: peritoneal cells 24 hrs after i.p. injection", "procedure": "Using the same experimental groups as described above in Example 4, two extra microscopic slides from each experimental sample were prepared. After Accustain (modified Wright stain, Sigma) staining, the slides were evaluated using the optical microscope for presence of individual types of cells, i.e. macrophages, lymphocytes and mast cells."}, "[3]": {"system": "cells from peripheral blood (monocytes, granulocytes)", "assay": "Phagocytosis of HEMA particles by cells from peripheral blood after intraperitoneal injection", "conditions": "for % of phagocytosing granulocytes / % of phagocytosing monocytes: peripheral blood 24 hrs after i.p. injection", "procedure": "A group of Balb/c mice (Jackson laboratory, Bar Harbor, ME, USA) has been injected intraperitoneally with either PBS (Control; Sigma, St. Louis, Mo., USA), Laminaritetraose or Laminaripentaose. 24 hrs later, mice were sacrified, peripheral blood from the orbital plexus was collected into heparine (5 IU/ml) (Sigma).\nAfter counting, a test of phagocytosis of HEMA particles (synthetic microspheres prepared from 2-hydroxyethylmethacrylate copolymer) was performed as described in: Rembaum et al., 1976, Vetvicka et al. 1982, Bilej et al., 1989.\n0.1 ml of heparinized fresh blood was added to 0.05 ml of diluted HEMA particles (5×10^8/ml) and incubated for 60 minutes at 37° C. with occasional gentle agitation.\nAfter the end of incubation, the cell suspension was smeared over microscope slides. Smears were evaluated under the optical microscope after Accustain (modified Wright stain, Sigma) staining.\nCells with at least three engulfed particles were considered to be positive."}, "[4]": {"conditions": "individual values, cells with at least three engulfed HEMA particles positive"}, "[5]": {"conditions": "mean, at least three engulfed HEMA particles"}}, "note": "Values joined by “and” are separate entries in the source; they are usually repeats but may differ in a detail not shown here. Equal entries are not always repeated.", "data": [{"compound": "OC[C@H]1O[C@@H](O[C@@H]2[C@@H](O)[C@H](O[C@@H]3[C@@H](O)[C@H](O[C@@H]4[C@@H](O)[C@H](O)O[C@H](CO)[C@H]4O)O[C@H](CO)[C@H]3O)O[C@H](CO)[C@H]2O)[C@H](O)[C@@H](O)[C@@H]1O", "note": "[Laminaritetraose, β-D-glucopyranosyl-(1→3)-β-D-glucopyranosyl-(1→3)-β-D-glucopyranosyl-(1→3)-β-D-glucopyranose]", "values": [{"measurement": "% of phagocytosing macrophages", "setting": "peritoneal macrophages; individual values, cells with six or more engulfed HEMA particles positive", "result": "46.2% and 51.5% and 44.5%"}, {"measurement": "% of phagocytosing macrophages", "setting": "peritoneal macrophages; mean, six or more engulfed HEMA particles", "result": 47.4, "unit": "%"}, {"measurement": "Effect on phagocytosis of peritoneal macrophages (in words)", "setting": "peritoneal macrophages; peritoneal cells, versus PBS control", "result": "strongly stimulate phagocytosis"}, {"measurement": "% of granulocytes", "setting": "[1]; individual values", "result": "33.2% and 34.4% and 30.1%"}, {"measurement": "% of lymphocytes", "setting": "[1]; individual values", "result": "57.7% and 55.6% and 61.4%"}, {"measurement": "% of monocytes", "setting": "[1]; individual values", "result": "9.1% and 10.0% and 8.5%"}, {"measurement": "% of granulocytes", "setting": "[1]; mean", "result": 32.6, "unit": "%"}, {"measurement": "% of lymphocytes", "setting": "[1]; mean", "result": 58.2, "unit": "%"}, {"measurement": "% of monocytes", "setting": "[1]; mean", "result": 9.2, "unit": "%"}, {"measurement": "Effect on number of granulocytes in the peripheral blood (in words)", "setting": "[1]; versus PBS control", "result": "increase the number of granulocytes"}, {"measurement": "Concentration of TNF alpha in blood of treated mice", "setting": "TNF-alpha; 50 μg/mouse i.p., 30 min", "result": 55.7, "unit": "pg/mL"}, {"measurement": "Concentration of TNF alpha in blood of treated mice", "setting": "TNF-alpha; 50 μg/mouse i.p., 60 min", "result": 103.0, "unit": "pg/mL"}, {"measurement": "Concentration of TNF alpha in blood of treated mice", "setting": "TNF-alpha; 50 μg/mouse i.p., 90 min", "result": 35.3, "unit": "pg/mL"}, {"measurement": "Concentration of TNF alpha in blood of treated mice", "setting": "TNF-alpha; 100 μg/mouse i.p., 30 min", "result": 39.0, "unit": "pg/mL"}, {"measurement": "Concentration of TNF alpha in blood of treated mice", "setting": "TNF-alpha; 100 μg/mouse i.p., 60 min", "result": 18.4, "unit": "pg/mL"}, {"measurement": "Concentration of TNF alpha in blood of treated mice", "setting": "TNF-alpha; 100 μg/mouse i.p., 90 min", "result": 13.6, "unit": "pg/mL"}, {"measurement": "Concentration of TNF alpha in blood of treated mice", "setting": "TNF-alpha; 250 μg/mouse i.p., 30 min", "result": 27.3, "unit": "pg/mL"}, {"measurement": "Concentration of TNF alpha in blood of treated mice", "setting": "TNF-alpha; 250 μg/mouse i.p., 60 min", "result": 152.3, "unit": "pg/mL"}, {"measurement": "Concentration of TNF alpha in blood of treated mice", "setting": "TNF-alpha; 250 μg/mouse i.p., 90 min", "result": 11.1, "unit": "pg/mL"}, {"measurement": "TNF-alpha level (Table 6, same experiments as Table 5)", "setting": "TNF-alpha; 24 hours", "result": 28.1, "unit": "pg/mL"}, {"measurement": "TNF-alpha level (Table 6, same experiments as Table 5)", "setting": "TNF-alpha; 48 hours", "result": 35.9, "unit": "pg/mL"}, {"measurement": "Relative activity on TNF-alpha level (in words)", "setting": "TNF-alpha; comparison between substances, Table 6, 24 and 48 h", "result": "more active than yest derived glucan (Lentinan)"}, {"measurement": "Increase of TNF-alpha secretion compared with Lentinan (in words)", "setting": "TNF-alpha; low doses, indirect activation of macrophages and cytotoxic T lymphocytes", "result": "significantly higher"}, {"measurement": "% of lymphocytes", "setting": "[2]; individual values", "result": "45.9% and 50.4% and 44.1%"}, {"measurement": "% of macrophages", "setting": "[2]; individual values", "result": "41.2% and 43.6% and 46.8%"}, {"measurement": "% of mast cells", "setting": "[2]; individual values", "result": "12.9% and 6.0% and 9.1%"}, {"measurement": "% of lymphocytes", "setting": "[2]; mean", "result": 46.8, "unit": "%"}, {"measurement": "% of macrophages", "setting": "[2]; mean", "result": 43.9, "unit": "%"}, {"measurement": "% of mast cells", "setting": "[2]; mean", "result": 9.3, "unit": "%"}, {"measurement": "Effect on migration of macrophage into the peritoneal cavity (in words)", "setting": "[2]; versus PBS control", "result": "stimulate the migration of macrophage"}, {"measurement": "% of phagocytosing granulocytes", "setting": "[3]; [4]", "result": "28.6% and 32.3% and 32.6%"}, {"measurement": "% of phagocytosing monocytes", "setting": "[3]; [4]", "result": "36.8% and 30.9% and 39.8%"}, {"measurement": "% of phagocytosing granulocytes", "setting": "[3]; [5]", "result": 31.2, "unit": "%"}, {"measurement": "% of phagocytosing monocytes", "setting": "[3]; [5]", "result": 35.8, "unit": "%"}, {"measurement": "Effect on phagocytosis in monocytes and granulocytes (in words)", "setting": "[3]; peripheral blood, versus PBS control", "result": "strongly stimulate phagocytosis"}]}]}
